# Test results published in patent US20140080903A1, “APPLICATION OF ALPHA-MANGOSTIN IN PREPARATION OF MEDICAMENTS FOR ALZHEIMER'S DISEASE” (BOMAI LIMITED, priority 2011, published 2014).
# Read-outs that look alike come from different tables or passages of the source.
# Key:
# [1] = target: T1, Aβ (Homo sapiens, UniProt P05067); assay: Thioflavin-T fluorescence kinetics of Aβ aggregation; format: biochemical; details: inhibitor:Aβ 1:1, 37° C.; for incubation time at which Aβ enters into accumulation: Aβ itself 4 hours
# T1 construct: purchased Sigma-Aldrich Corporation (China)
# T1 sequence (P05067 672-711 limits assumed): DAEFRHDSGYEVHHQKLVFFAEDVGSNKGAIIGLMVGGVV
# Experimental: Resveratrol, Curcumin and Propidium Iodide are the reported inhibitors on Aβ aggregation.
# 1 mg Aβ was dissolved in 500 μL HFIP, and put at room temperature for 120 minutes with intermittent shaking Then HFIP was dried by high pure nitrogen blowing and 100 μL DMSO was added to prepare an Aβ stock of 2.3 mM, which was stored at −20° C. DMSO was employed to dilute Aβ stock and 2 μL diluted solution was added to 16 μL PBS (0.215M, pH 8.0), which made a solution of Aβ at […], to which 2 μL α-Mangostin (25 μM) or other inhibitors, and blank solvent was added. Followed with incubation for 30 minutes, the mixture was added 80 μL Thioflavin-T(10 μM)/Glycine-NaOH (50 mM, pH8.5) and transferred to microplate for fluorescence intensity measurement. The parameters for measurement was set up as follow: instrument temperature of 37° C., shaking frequency of 240 rpm, radius of […], excitation wavelength of 446 nm, emission wavelength of 485 nm, bandwidth of 5 nm, and detection frequent of every 30 minute. Fluorescence intensity was recorded and statistically analyzed.
# [2] = tested on: SAM-P8 mice; assay: Morris water maze test in SAM-P8 mice; format: in vivo; details: for distance: mid-dose group
# Experimental: Female SAM-P8 mice of 8-month old were employed as the model animal in the invention. All of the mice experimental procedures strictly followed the Guide for the Care and Use of Laboratory Animals as adopted and promulgated by the National Institutes of Health, USA, including sterile rearing environment, temperature controlled between 23° C. and 25° C., humidity controlled at 55±5%, and an interval of twelve hours light.
# The concentration and dose of α-Mangostin applied in the experiment were adjusted according to the different animal models. In molecular experiments, α-Mangostin was employed to calibrate the concentration of Aβ, prepared with the unit of molar concentration, and compared with the known Aβ aggregation inhibitor. In cellular experiments, α-Mangostin was also prepared with the unit of molar concentration, and provided in screening from the concentration of 50 pmol/L to 500nmol/L. In animal experiments, following the established practice, α-Mangostin was prepared with the unit of weight/animal weight, provided dosage range across three orders of magnitude of low dose (1 μg/kg), mid dose (10 μg/kg), high dose (100 μg/kg), and administrated orally (O.P., Solid granules).
# SAM-P8 mice were weight and divided into five groups randomly, including the model group, low-dose (1 μg/kg) , mid-dose (10 μg/kg) , high-dose ([…]) groups and positive control group treated with resveratrol (10 mg/kg). SAM-R1 mice were used as normal control. Reagents were mixed in food and applied to mice from the 3rd day after grouping (enter 6 months age) to the end of the test. Normal control group and model group were administrated with the same amount of food.
# Morris water maze test was carried out when SAM-P8 mice entered the age of 8 months. Water temperature in the experiment was controlled at 22±0.5° C. Mice were put into water with their faces towards the wall and backs towards water. The computer started automatically to record the trace and time (escape latency) of mice seeking the platform within 100 seconds. […] The tests were carried out twice every day, with an interval of 6 hours, and continued for 3 days. After place navigation test, the platform was removed. Mice were placed into water at a certain place of entry. The first time those mice reached the platform and the times that mice across the platform were recorded.
# [3] = target: Histamine H1-receptor (Homo sapiens, UniProt P35367); details: generally; cited from earlier work
# Histamine H1-receptor, sequence (P35367 whole entry, species assumed): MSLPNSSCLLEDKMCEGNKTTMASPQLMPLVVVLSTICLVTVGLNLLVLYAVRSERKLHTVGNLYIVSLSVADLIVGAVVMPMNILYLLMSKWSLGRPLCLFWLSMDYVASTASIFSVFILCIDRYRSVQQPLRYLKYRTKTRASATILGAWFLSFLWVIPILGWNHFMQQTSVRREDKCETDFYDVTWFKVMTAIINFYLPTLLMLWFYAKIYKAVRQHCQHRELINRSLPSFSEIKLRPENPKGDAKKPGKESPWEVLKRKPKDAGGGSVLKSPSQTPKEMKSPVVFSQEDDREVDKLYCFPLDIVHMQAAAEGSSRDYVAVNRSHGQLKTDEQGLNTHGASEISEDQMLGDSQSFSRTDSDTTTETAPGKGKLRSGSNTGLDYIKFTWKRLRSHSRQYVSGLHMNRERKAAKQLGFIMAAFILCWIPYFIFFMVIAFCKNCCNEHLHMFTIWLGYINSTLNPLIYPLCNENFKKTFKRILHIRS
# [4] = target: T2, Aβ oligomer (Homo sapiens, UniProt P05067); assay: ELISA determination of Aβ oligomer (6E10/A11); format: biochemical
# T2 construct: purchased Sigma-Aldrich Corporation (China)
# T2 sequence (P05067 672-711 limits assumed): as the sequence (P05067 672-711 limits assumed) above
# Experimental: 1 mg Aβ was dissolved in 500 μL HFIP at room temperature, of which 100 μL was transferred into a clean centrifuge tube (1.5 mL), where 900 μL sterile deionized water was added. Followed with centrifugation, the supernatant was moved to another clean centrifuge tube (1.5 mL) and HFIP was dried with high pure nitrogen blowing. Then the solution was stirred at 500 rpm for 48 hours at 22° C., using a micro stir bar, to get the solution of Aβ oligomer (1 μM). In inhibition experiment, α-Mangostin was added into the Aβ oligomer solution to obtain the final concentrations of 5 μM, 2 μM, 1 μM, 0.5 μM and 0.2 μM, respectively, and followed with another 12 hours stirring at 500 rpm and 22° C.α-Mangostin can also be added before stirring with Aβ oligomer for 12 hours.
# The incubated solution was applied into the 96-well microplate coated with 100 μL monoclonal anti-Aβ antibody (6E10). After incubation for 1 hour at 37° C., the wells were washed 3 times with washing buffer and 100 μL Oligomer-specific antibody (A11) was applied. After 5 times washing, 100 μL HRP-conjugated Goat anti-Rabbit IgG was applied. After another 5 times washing and 15 minutes colour developing, the optical density was recorded and statistically analyzed with plate reader.
# [5] = tested on: primary neuronal cells; assay: high content assay of neuroprotective effect against Aβ oligomer; format: cell-based, SD rat; details: 50 nM α-Mangostin, 1 μM Aβ oligomer
# Experimental: Mammalian neurons in the experiment were prepared from embryonic day 15 SD rat embryos. A medium specific for neurons was employed, including neurobasal, 2% B27 and 1% glutamine that were all commercial and used following the instructions of the manufacturer.
# Embryonic day 15 SD rats are etherized and embryos were collected to a sterile dish with an anatomic buffer. Heads of the embryos were cut to a precooling dish with an anatomic buffer. A pair of straight forceps were inserted through eyes to fix the head, and another pincett was inserted along the head sagittal suture. The mening and skull were torn from front to back and to collect the brain. The hippocampus was peeled to the anatomic buffer in a precooling dish. The hippocampus was dissected by scissors disinfected with 75% alcohol. The minced tissues were collected into a marked 15 ml centrifuge tube and let them naturally precipitate to the bottom of the tube. The supernatant was discarded, and 2 mL 0.05% Trypsin was added. The tube was flipped several times and let it incubate for 5 minutes at 37° C. (shake evenly every two minutes). […]
# The live cell dye stock in CELLOMICS ® Multiparameter Cytotoxicity 2 Kit was diluted to its working concentration. […] The fluorescence intensity was measured with high content plate reader and analyzed by the software of Cell Health Profiling Bio Application.
# [6] = 5 μM α-Mangostin, mole ratio to Aβ oligomer 5:1
compound,measurement,setting,value
COc1cc(/C=C/C(=O)CC(=O)/C=C/c2ccc(O)c(OC)c2)ccc1O [curcumin],incubation time at which Aβ enters into plateau,[1],15 h
CC[N+](C)(CC)CCC[n+]1c(-c2ccccc2)c2cc(N)ccc2c2ccc(N)cc21.[I-].[I-] [propidium iodide],incubation time at which Aβ enters into plateau,[1],10 h
same,maximum fluorescence intensity compared with Aβ incubated itself,[1]; within 24 hours,10%
same,incubation time at which Aβ enters into accumulation,[1],6 h
"Oc1ccc(C=Cc2cc(O)cc(O)c2)cc1 [resveratrol, reference compound]",escape latency and distance compared with model group,"[2]; from day 3, resveratrol 10 mg/kg positive control",notably decreased
same,incubation time at which Aβ enters into plateau,[1],15 h
COc1c(O)cc2oc3cc(O)c(CC=C(C)C)c(O)c3c(=O)c2c1CC=C(C)C [α-Mangostin],working concentration as Histamine H1-receptor antagonist,[3],higher than 10^−6 mol/L
same,escape latency,"[2]; day 2, mid-dose group 10 m/kg, oral in food, model 72.17±10.09 s",46.16 ± 5.51 s
same,escape latency,"[2]; from day 3, first value, mid-dose group 10 μg/kg, model 55.66±5.51 s",40.02 ± 4.16 s
same,distance,"[2]; from day 3, first value, model 773.06±65.54",438.78±46.02 cm
same,escape latency,"[2]; from day 3, second value, mid-dose group 10 μg/kg, model 39.93±4.12 s",19.05 ± 3.27 s
same,distance,"[2]; from day 3, second value, model 543.13±56.72",223.15±31.29 cm
same,formation of Aβ oligomer inhibited to,[4]; [6],14.15±2.86%
same,formed Aβ oligomer disaggregated to,[4]; [6],39.58±3.25%
same,IC50,[4]; read-out: IC50 of disaggregation of formed Aβ oligomer,1590 ± 820 nM
same,IC50,[4]; read-out: IC50 of inhibition on Aβ oligomer formation,1090 ± 540 nM
same,inhibition of Aβ aggregation,[1]; within 24 hours,almost completely inhibited
same,incubation time at which Aβ enters into accumulation,[1],no accumulation phase appeared within 24 hours
same,mitochondrial membrane potential,[5]; model 70.25±6.97%,105.25±5.84%
same,cell membrane permeability of neuronal cells,[5]; model 173.75±6.82%,107.75±9.39%
